Numbers after ± are expanded uncertainties.
What was measured:
[1] = 298.15 K, 101.33 kPa, Liquid; for mass density: Pycnometric method; for speed of sound: Sing-around technique in a fixed-path interferometer
[2] = xn = mol fraction of the nth substance listed; conditions: 298.15 K, 101 kPa, Liquid, Sing-around technique in a fixed-path interferometer

COCCOCCOCCO [2-[2-(2-methoxyethoxy)ethoxy]ethanol]
[1]
Conditions | mass density [kg/m3] | speed of sound [m/s]
– | 1043.06 ± 1.7 | 1459 ± 2.1

COCCOCCO [2-(2-methoxyethoxy)ethanol]
[1]
Conditions | mass density [kg/m3] | speed of sound [m/s]
– | 1016.43 ± 1.6 | 1417.2 ± 2.1

CCCCOCCOCCOCCCC [5,8,11-trioxapentadecane] + CCCN
[2]
Conditions | speed of sound [m/s]
x1 = 0.0033 | 1215.3 ± 2.1
x1 = 0.0114 | 1215.5 ± 2.1
x1 = 0.033 | 1217.3 ± 2.1
x1 = 0.0476 | 1218.4 ± 2.1
x1 = 0.0724 | 1221 ± 2.1
x1 = 0.0955 | 1222.8 ± 2.1
x1 = 0.139 | 1227.3 ± 2.1
x1 = 0.1781 | 1231.7 ± 2.1
x1 = 0.2413 | 1237.2 ± 2.1
x1 = 0.3004 | 1242 ± 2.1
x1 = 0.3569 | 1245.8 ± 2.1
x1 = 0.4169 | 1249.5 ± 2.1
x1 = 0.4689 | 1251.9 ± 2.1
x1 = 0.5355 | 1255.2 ± 2.1
x1 = 0.5925 | 1258.2 ± 2.1
x1 = 0.6493 | 1260.8 ± 2.1
x1 = 0.6979 | 1262.9 ± 2.1
x1 = 0.7548 | 1264.7 ± 2.1
x1 = 0.8153 | 1266.6 ± 2.1
x1 = 0.8686 | 1268.2 ± 2.1
x1 = 0.9 | 1269 ± 2.1
x1 = 0.9241 | 1269.5 ± 2.1
x1 = 0.9526 | 1269.9 ± 2.1
x1 = 0.977 | 1270.1 ± 2.1
x1 = 0.991 | 1270.3 ± 2.1

COCCOCCO [2-(2-methoxyethoxy)ethanol] + CCCN
[2]
Conditions | speed of sound [m/s]
x1 = 0.0055 | 1215.3 ± 2.1
x1 = 0.0112 | 1217 ± 2.1
x1 = 0.024 | 1220.2 ± 2.1
x1 = 0.0454 | 1225.5 ± 2.1
x1 = 0.0749 | 1233.3 ± 2.1
x1 = 0.0948 | 1238.6 ± 2.1
x1 = 0.1292 | 1249.1 ± 2.1
x1 = 0.1834 | 1264.6 ± 2.1
x1 = 0.2523 | 1284.5 ± 2.1
x1 = 0.309 | 1301.5 ± 2.1
x1 = 0.3831 | 1320.8 ± 2.1
x1 = 0.4484 | 1337 ± 2.1
x1 = 0.5041 | 1349.4 ± 2.1
x1 = 0.5603 | 1360.6 ± 2.1
x1 = 0.6353 | 1373.2 ± 2.1
x1 = 0.6792 | 1380 ± 2.1
x1 = 0.7209 | 1385.9 ± 2.1
x1 = 0.7775 | 1392.7 ± 2.1
x1 = 0.8121 | 1397.5 ± 2.1
x1 = 0.8725 | 1404.9 ± 2.1
x1 = 0.912 | 1408.8 ± 2.1
x1 = 0.9332 | 1411.2 ± 2.1
x1 = 0.9535 | 1413.1 ± 2.1
x1 = 0.9852 | 1416.5 ± 2.1
x1 = 0.9983 | 1417.1 ± 2.1

COCCOCCOCCO [2-[2-(2-methoxyethoxy)ethoxy]ethanol] + CCCN
[2]
Conditions | speed of sound [m/s]
x1 = 0.0039 | 1216.1 ± 2.1
x1 = 0.0134 | 1219.9 ± 2.1
x1 = 0.0327 | 1226.9 ± 2.1
x1 = 0.0519 | 1234.2 ± 2.1
x1 = 0.0799 | 1245.4 ± 2.1
x1 = 0.108 | 1258 ± 2.1
x1 = 0.1484 | 1274.9 ± 2.1
x1 = 0.2102 | 1299.7 ± 2.1
x1 = 0.2743 | 1324.5 ± 2.1
x1 = 0.341 | 1347.6 ± 2.1
x1 = 0.3879 | 1361.8 ± 2.1
x1 = 0.4351 | 1375 ± 2.1
x1 = 0.5433 | 1398.7 ± 2.1
x1 = 0.5904 | 1407.5 ± 2.1
x1 = 0.6475 | 1416 ± 2.1
x1 = 0.6873 | 1422.1 ± 2.1
x1 = 0.7353 | 1429.5 ± 2.1
x1 = 0.7806 | 1434.9 ± 2.1
x1 = 0.8226 | 1441.1 ± 2.1
x1 = 0.8873 | 1448.3 ± 2.1
x1 = 0.9295 | 1452.6 ± 2.1
x1 = 0.9565 | 1456.2 ± 2.1
x1 = 0.9751 | 1457 ± 2.1
x1 = 0.9898 | 1458.5 ± 2.1
x1 = 0.9973 | 1458.7 ± 2.1

CCOCCOCCOCC [diethylene glycol diethyl ether] + CCCN
[2]
Conditions | speed of sound [m/s]
x1 = 0.0035 | 1214.7 ± 2.1
x1 = 0.0108 | 1214.5 ± 2.1
x1 = 0.025 | 1214 ± 2.1
x1 = 0.0591 | 1214.1 ± 2.1
x1 = 0.0865 | 1214.7 ± 2.1
x1 = 0.1134 | 1215.2 ± 2.1
x1 = 0.1662 | 1217.3 ± 2.1
x1 = 0.2091 | 1218.8 ± 2.1
x1 = 0.2738 | 1221.4 ± 2.1
x1 = 0.3214 | 1223.8 ± 2.1
x1 = 0.3658 | 1225.7 ± 2.1
x1 = 0.3939 | 1227 ± 2.1
x1 = 0.4846 | 1230.5 ± 2.1
x1 = 0.5313 | 1232.3 ± 2.1
x1 = 0.5713 | 1233.8 ± 2.1
x1 = 0.6319 | 1235.6 ± 2.1
x1 = 0.6754 | 1236.7 ± 2.1
x1 = 0.7192 | 1238.1 ± 2.1
x1 = 0.7754 | 1239.4 ± 2.1
x1 = 0.8066 | 1240.1 ± 2.1
x1 = 0.8729 | 1241.7 ± 2.1
x1 = 0.9037 | 1242.1 ± 2.1
x1 = 0.9238 | 1242.2 ± 2.1
x1 = 0.9448 | 1242.3 ± 2.1
x1 = 0.9638 | 1242.4 ± 2.1
x1 = 0.9835 | 1242.5 ± 2.1
x1 = 0.9916 | 1242.2 ± 2.1
